# Test results: paper PMC12867150, “A fungi-derived cyclic peptide enhances Th9-mediated antitumor immunity by targeting ZAP70 and SREBP1” (The Journal of Clinical Investigation, 2025)
# Columns and labels:
# [1] = system: B16-OVA melanoma; test: Adoptive transfer of OT-II Th9 cells, B16-OVA tumor growth in C57BL/6 mice (Figure 2A, 2H); type: in vivo; settings: EpA-Th9 cells vs conventional Th9 cells; result in words
# From the text: (A) Schematic of the therapeutic model. C57BL/6 mice were subcutaneously inoculated with B16-OVA melanoma cells (5 × 10^5) and preconditioned with cyclophosphamide (CTX) on day 4. […] (B–G) Flow-cytometric analysis of transferred CD45.1^+ OT-II Th9 cells (B and C) and endogenous CD4^+ (D and E) and CD8^+ T cells (F and G) in spleens and tumors, showing frequencies and absolute numbers (n = 4 mice per group). (H) Tumor growth curves in B16-OVA–bearing C57BL/6 or β2-microglobulin–deficient (β2m-KO) mice following transfer of control or EpA-treated OT-II Th9 cells (n = 4 mice per group). (I) C57BL/6 mice bearing B16-OVA tumors were treated with control or EpA-induced OT-II Th9 cells (2 × 10^6, i.v., day 5), followed by anti–PD-1 antibody (200 μg, i.p.) on day 7, and (100 μg, i.p.) on day 10 and 12. Tumor growth is shown with individual trajectories (n = 6 mice per group). Statistical analysis was performed using 2-tailed unpaired Student’s t test ([…], B–G) or 1-way ANOVA with Tukey’s post hoc test (H and I). All data are presented as the mean ± SEM. *P < 0.05, **P < 0.01, ***P < 0.001. Schematic in A created using BioRender (https://Biorender.com).
# C57BL/6 mice were subcutaneously injected with 5 × 10^5 B16-OVA melanoma cells. […]
# [2] = system: human Th9 CAR T cells; test: IL-9 in human Th9 CAR T cells (S9D-E); type: cell-based; settings: for IL-9 expression in human Th9 CAR-T cells: Supplemental Figure 9E; for IL-9 gate number: representative flow plot, Figure S9D
# From the text: Details regarding staining panels (human and mouse), reagents (including clones and catalog numbers), acquisition settings, compensation/controls, and analysis procedures are provided in Supplemental Methods. […]
# (C) Flow-cytometric analysis of infection efficiency in Th9 cells transduced with a CD19-directed CAR lentivirus. (D and E) Flow-cytometric analysis of IL-9 expression in human Th9 CAR-T cells on days 5 and 6 of in vitro differentiation, showing representative plots (D) and quantification (E) (n = 3). […]
# (H) and quantification (I) (n = 5 mice per group). Statistical analysis was performed using one-way ANOVA with Tukey’s post hoc test (A and B), or two-tailed unpaired Student’s t-test (E–G, and I). Repeated data are presented as mean ± SEM. *p < 0.05, […]
# (also on this page, place not known: TP cells ANOV A 30IL-9+ cells (%) Fato Fato Fato Fato A SSC GzmB CtrlEpA MFIofMitoTracker (×102) GF NormalizedATPlevel CtrlEpA 4MFI of Mito Tracker (×105) CtrlEpA0 GzmB+ cells (%) CD4 10 20 IL-9+ cells (%) Day60 10 20 30 Ctrl) […]
# [3] = system: chromatin accessibility in Th9 cells; test: Bulk ATAC-seq of Th9 cells (Figure 3C, S3E); type: cell-based, mouse; settings: result in words
# From the text: Raw FASTQ reads were subjected to quality control using Trim Galore to remove adapter sequences and low-quality bases. Cleaned reads were aligned to the GRCm38 mouse reference genome using Bowtie2. Low-quality alignments were filtered out using SAMtools, and PCR duplicates were removed using Sambamba to reduce technical artifacts. ENCODE blacklist regions were excluded using BEDtools. Read positions were adjusted using alignmentSieve, followed by sorting and indexing with SAMtools to generate BAM files. Peak calling was conducted using MACS3 to identify regions of open chromatin indicative of accessible regulatory elements.
substance,measurement,setting,value
anteiso-C15 Leu7 surfactin [EpA],tumor control,[1],significantly improved tumor control
same,IL-9 expression in human Th9 CAR-T cells,"[2]; Day5, replicate 1",27.7
same,IL-9 expression in human Th9 CAR-T cells,"[2]; Day5, replicate 2",21.8
same,IL-9 expression in human Th9 CAR-T cells,"[2]; Day5, replicate 3",25.1
same,IL-9 gate number,[2]; Day5,24.8
same,IL-9 expression in human Th9 CAR-T cells,"[2]; Day6, replicate 1",6.55
same,IL-9 expression in human Th9 CAR-T cells,"[2]; Day6, replicate 2",6.68
same,IL-9 expression in human Th9 CAR-T cells,"[2]; Day6, replicate 3",6.84
same,IL-9 gate number,[2]; Day6,6.7
same,"IL-9 production, Th9 CAR T",[2]; result in words,increased IL-9 production
same,Ifng accessibility and expression,[3],further reduced
same,Il9 locus accessibility and transcription,[3],increased accessibility and transcription
same,global chromatin accessibility,[3],only modestly affected
